Experiments:
recombinant ASK1 = target: T1, recombinant ASK1 (Homo sapiens, UniProt Q99683); experiment: ASK1 Biochemical Assay (HTRF KinEASE-STK S3); conditions: ATP 100 μM; read-out: Biochemical Assay IC50
T1 construct: purchased Carna Biosciences
Description: ASK1 biochemical assay was standardized using recombinant ASK1 (Carna Biosciences), substrate and detection reagents from Cisbio HRTF KinEASE-STK S3 kit. Enzyme concentration, ATP, biotinylated STK substrate and STK antibodies were titrated for enzyme assay. Assay was carried out in ASK1 kinase buffer, 10 mM MOPS pH-7, 10 mM Mg-acetate, 1 mM DTT, 0.025% NP40, 1.5% glycerol and 0.05% BSA. DMSO was used as vehicle control with a final concentration of 1%. A 5 ng of ASK1 enzyme was incubated with compound for 1 hour at 23° C. on a shaker at 100rpm. ATP and biotin substrate was added at a final concentration of 100 μM and 1 μM and incubated for 3 hours at 23° C. on a shaker at 100rpm. […] Delta F ratios were calculated from data obtained at excitation (337 nm) and emission wavelengths (665 nm and 620-10 nm). Substrate blank values was considered as negative control. Values from negative control was substrated from vehicle control and compound treated wells. Enzyme inhibition by compounds were calculated from vehicle controls, which represent uninterrupted enzyme's activity.

Human ASK1 = target: T2, Human ASK1 (Homo sapiens, UniProt Q99683); experiment: ASK1 Cell Based Assay (phospho p38 read out in hASK1 transfected HEK293T-AP1 cells); conditions: HEK293T-AP1 cells, 1 mM hydrogen peroxide, phospho p38; read-out: Cell Based Assay IC50
T2 construct: expressed in transfected cells; host or cells: HEK293T-AP1
T2 sequence (Q99683 1-1374): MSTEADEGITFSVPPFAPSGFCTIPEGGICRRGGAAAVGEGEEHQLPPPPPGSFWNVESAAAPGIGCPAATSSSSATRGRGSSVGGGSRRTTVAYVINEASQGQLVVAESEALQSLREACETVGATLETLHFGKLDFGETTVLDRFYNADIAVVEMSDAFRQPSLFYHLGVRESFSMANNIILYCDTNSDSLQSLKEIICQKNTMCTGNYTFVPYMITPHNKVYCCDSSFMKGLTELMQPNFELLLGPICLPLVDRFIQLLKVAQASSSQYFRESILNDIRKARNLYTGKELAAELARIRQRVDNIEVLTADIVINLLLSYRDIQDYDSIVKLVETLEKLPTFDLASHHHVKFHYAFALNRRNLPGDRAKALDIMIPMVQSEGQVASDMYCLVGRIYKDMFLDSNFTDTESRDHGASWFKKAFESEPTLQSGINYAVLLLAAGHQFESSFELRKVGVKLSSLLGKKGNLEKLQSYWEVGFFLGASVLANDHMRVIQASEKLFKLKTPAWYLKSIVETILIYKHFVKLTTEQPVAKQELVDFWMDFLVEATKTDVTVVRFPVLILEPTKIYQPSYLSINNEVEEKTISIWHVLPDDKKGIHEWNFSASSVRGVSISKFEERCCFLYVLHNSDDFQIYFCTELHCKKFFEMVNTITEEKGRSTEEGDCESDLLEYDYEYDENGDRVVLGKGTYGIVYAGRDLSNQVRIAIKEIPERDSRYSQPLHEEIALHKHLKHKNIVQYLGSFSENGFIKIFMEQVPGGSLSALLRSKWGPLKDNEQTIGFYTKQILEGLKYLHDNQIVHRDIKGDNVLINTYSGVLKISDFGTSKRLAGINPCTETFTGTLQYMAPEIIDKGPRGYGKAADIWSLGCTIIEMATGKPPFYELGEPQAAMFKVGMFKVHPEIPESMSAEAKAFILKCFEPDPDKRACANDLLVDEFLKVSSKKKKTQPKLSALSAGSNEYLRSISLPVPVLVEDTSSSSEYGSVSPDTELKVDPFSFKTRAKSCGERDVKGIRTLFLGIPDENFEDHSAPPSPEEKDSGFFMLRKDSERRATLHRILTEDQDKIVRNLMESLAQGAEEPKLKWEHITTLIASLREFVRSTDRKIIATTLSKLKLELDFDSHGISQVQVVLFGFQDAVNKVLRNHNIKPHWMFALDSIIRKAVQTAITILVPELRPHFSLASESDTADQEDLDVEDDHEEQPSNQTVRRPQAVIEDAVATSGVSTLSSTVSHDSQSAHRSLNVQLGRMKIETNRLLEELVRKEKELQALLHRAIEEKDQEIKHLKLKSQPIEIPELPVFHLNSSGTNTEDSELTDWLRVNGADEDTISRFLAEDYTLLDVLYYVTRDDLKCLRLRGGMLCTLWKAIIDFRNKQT
Description: HEK293T-AP1 cells were seeded at a density of 20,000 cells per well in a poly-d-lysine coated 96 well microplate. Next day, cells were transfected with hASK1-pcDNA3.1 vector using lipofectamine 3000. After 24 hours of transfection, cells were treated with compounds for 24 hours in assay medium. DMSO was used as a vehicle control with a final DMSO concentration of 0.2%. On 4th day, medium was discarded and cells were activated with 1 mM hydrogen peroxide for 1 hour in the presence of compounds. Cells were lysed for 1 hour with 1× lysis buffer on a shaker at 100 rpm. Sixteen microliters of lysate was collected into a 384 well small volume plate. Phospho p38 levels in the lysate was detected by using CisbioPhospho-p38 MAPK (Thr180/Tyr182) #64P38PEG.Four microliters of phospho p38 antibodies labelled with europium cryptate and d2 acceptor, were added to the lysate and incubated overnight. TR-FRET was measured at an excitation of 335 nm and emission was measured at 615 nm and 665 nm in BMG FLUOstar multimode reader.
Compounds were assessed for ASK1 inhibition based on phospho p38 read out. […] Background control values were susbtracted from vehicle control as well as from compound treated wells.

Row | SMILES | IC50 (recombinant ASK1) [nM] | IC50 (Human ASK1) [nM]
1 | CC(C)n1cnnc1-c1cccc(N2CCN(c3cccc(-n4ccnc4)c3)C2=O)n1 [Example 1002, 1-(3-(1H-imidazol-1-yl)phenyl)-3-(6-(4-isopropyl-4H-1,2,4-triazol-3-yl)pyridin-2-yl)imidazolidin-2-one] | 70 | > 1000
2 | CC(C)n1cnnc1-c1cccc(N2CCN(c3cccc(-c4ccc(S(C)(=O)=O)cc4)c3)C2=O)n1 [Example 1007, 1-(6-(4-isopropyl-4H-1,2,4-triazol-3-yl)pyridin-2-yl)-3-(4′-(methylsulfonyl)-[1,1′-biphenyl]-3-yl)imidazolidin-2-one] | 30 | > 1000
3 | CC(C)n1cnnc1-c1cccc(N2CCN(c3cccc(-c4ccc(S(C)(=O)=O)nc4)c3)C2=O)n1 [Example 1010, 1-(6-(4-isopropyl-4H-1,2,4-triazol-3-yl)pyridin-2-yl)-3-(3-(6-(methylsulfonyl)pyridin-3-yl)phenyl)imidazolidin-2-one] | 25 | > 1000
4 | CC(C)n1cnnc1-c1cccc(N2CCN(c3cccc(-c4ccncc4)c3)C2=O)n1 [Example 1011, 1-(6-(4-isopropyl-4H-1,2,4-triazol-3-yl)pyridin-2-yl)-3-(3-(pyridin-4-yl)phenyl)imidazolidin-2-one] | < 1000 | > 10000
5 | CC(C)n1cnnc1-c1cccc(N2CCN(c3ccc(S(C)(=O)=O)cc3)C2=O)n1 [Example 1013, 1-(6-(4-isopropyl-4H-1,2,4-triazol-3-yl)pyridin-2-yl)-3-(4-(methylsulfonyl)phenyl)imidazolidin-2-one] | < 100 | < 1000
6 | CC(C)n1cnnc1-c1cccc(N2CCN(c3cccc(-c4cnn(S(C)(=O)=O)c4)c3)C2=O)n1 [Example 1014, 1-(6-(4-isopropyl-4H-1,2,4-triazol-3-yl)pyridin-2-yl)-3-(3-(1-(methylsulfonyl)-1H-pyrazol-4-yl)phenyl)imidazolidin-2-one] | > 100 | > 10000
7 | CC(C)n1cnnc1-c1cccc(N2CCN(c3ccc(S(C)(=O)=O)nc3)C2=O)n1 [Example 1018, 1-(6-(4-isopropyl-4H-1,2,4-triazol-3-yl)pyridin-2-yl)-3-(6-(methylsulfonyl)pyridin-3-yl)imidazolidin-2-one] | < 100 | > 1000
8 | COc1ccc(-c2ccc(S(C)(=O)=O)nc2)cc1N1CCN(c2cccc(-c3nncn3C(C)C)n2)C1=O [Example 1019, 1-(6-(4-isopropyl-4H-1,2,4-triazol-3-yl)pyridin-2-yl)-3-(2-methoxy-5-(6-(methylsulfonyl)pyridin-3-yl)phenyl)imidazolidin-2-one] | > 100 | > 10000
9 | CC(C)n1cnnc1-c1cccc(N2CCN(c3ccc(S(N)(=O)=O)cc3)C2=O)n1 [Example 1020, 4-(3-(6-(4-isopropyl-4H-1,2,4-triazol-3-yl)pyridin-2-yl)-2-oxoimidazolidin-1-yl)benzenesulfonamide] | < 100 | > 10000
10 | CC(C)n1cnnc1-c1cccc(N2CCN(c3cc(-c4ccc(S(C)(=O)=O)nc4)ccc3F)C2=O)n1 [Example 1021, 1-(2-fluoro-5-(6-(methylsulfonyl)pyridin-3-yl)phenyl)-3-(6-(4-isopropyl-4H-1,2,4-triazol-3-yl)pyridin-2-yl)imidazolidin-2-one] | > 1000 | > 10000
11 | CC(C)n1cnnc1-c1cccc(N2CCNC2=O)n1 [Example 1022, 1-(6-(4-isopropyl-4H-1,2,4-triazol-3-yl)pyridin-2-yl)imidazolidin-2-one] | < 100 | > 1000
12 | CC(C)n1cnnc1-c1cccc(N2CCN(c3ccc(S(N)(=O)=O)cc3)C2=O)n1 [Example 1023, 4-(3-(6-(4-isopropyl-4H-1,2,4-triazol-3-yl)pyridin-2-yl)-2-oxoimidazolidin-1-yl)benzenesulfonamide] | – | > 1000
13 | CC(C)n1cnnc1-c1cccc(N2CCN(c3ccc(S(=O)(=O)C4CC4)cc3)C2=O)n1 [Example 1025, 1-(4-(cyclopropylsulfonyl)phenyl)-3-(6-(4-isopropyl-4H-1,2,4-triazol-3-yl)pyridin-2-yl)imidazolidin-2-one] | < 100 | < 1000
14 | Cc1cc(N2CCN(c3cccc(-c4nncn4C(C)C)n3)C2=O)ccc1S(C)(=O)=O [Example 1029, 1-(6-(4-isopropyl-4H-1,2,4-triazol-3-yl)pyridin-2-yl)-3-(3-methyl-4-(methylsulfonyl)phenyl)imidazolidin-2-one] | < 100 | > 1000
15 | CC(C)n1cnnc1-c1cccc(N2CCN(c3ccc(S(C)(=O)=O)cc3F)C2=O)n1 [Example 1032, 1-(2-fluoro-4-(methylsulfonyl)phenyl)-3-(6-(4-isopropyl-4H-1,2,4-triazol-3-yl)pyridin-2-yl)imidazolidin-2-one] | < 100 | > 1000
16 | CC(C)n1cnnc1-c1cccc(N2CCN(c3ccncc3)C2=O)n1 [Example 1034, 1-(6-(4-isopropyl-4H-1,2,4-triazol-3-yl)pyridin-2-yl)-3-(pyridin-4-yl)imidazolidin-2-one] | < 100 | > 1000
17 | CC(C)n1cnnc1-c1cccc(N2CCN(c3ccc(C#N)cc3)C2=O)n1 [Example 1035, 4-(3-(6-(4-isopropyl-4H-1,2,4-triazol-3-yl)pyridin-2-yl)-2-oxoimidazolidin-1-yl)benzonitrile] | < 100 | > 10000
18 | CC(C)n1cnnc1-c1cccc(N2CCN(c3ccc(-n4ccnc4)cc3)C2=O)n1 [Example 1036, 1-(4-(1H-imidazol-1-yl)phenyl)-3-(6-(4-isopropyl-4H-1,2,4-triazol-3-yl)pyridin-2-yl)imidazolidin-2-one] | < 100 | < 1000
19 | CC(C)n1cnnc1-c1cccc(N2CCN(c3ccc(C(=O)C4CC4)cc3)C2=O)n1 [Example 1037, 1-(4-(cyclopropanecarbonyl)phenyl)-3-(6-(4-isopropyl-4H-1,2,4-triazol-3-yl)pyridin-2-yl)imidazolidin-2-one] | < 100 | < 1000
20 | CC(C)n1cnnc1-c1cccc(N2CCN(c3ccc(S(C)(=O)=O)c(F)c3)C2=O)n1 [Example 1038, 1-(3-fluoro-4-(methylsulfonyl)phenyl)-3-(6-(4-isopropyl-4H-1,2,4-triazol-3-yl)pyridin-2-yl)imidazolidin-2-one] | < 100 | < 1000

From patent US20220332700A1, “NOVEL APOPTOSIS SIGNAL-REGULATING KINASE 1 INHIBITORS” (MANKIND PHARMA LTD, priority 2019, published 2022)
